Results reported in the NIST ThermoML archive (doi:10.1016/j.tca.2004.08.001).

Columns and labels:
[1] = 101.33 kPa, Liquid; for speed of sound: Linear variable-path acoustic interferometer
[2] = refractive index (Na D-line) (dimensionless); conditions: 101.33 kPa, Liquid, Standard Abbe refractometry
[3] = xn = mol fraction of the nth substance listed; conditions: 303.15 K, 101.3 kPa, Liquid; for speed of sound: Linear variable-path acoustic interferometer
[4] = refractive index (Na D-line) (dimensionless); xn = mol fraction of the nth substance listed; conditions: 303.15 K, 101.3 kPa, Liquid, Standard Abbe refractometry

COC(C)=O [methyl ethanoate]
303.15 K
Conditions | mass density [kg/m3] | refractive index | speed of sound [m/s] | viscosity [mPa·s]
[1] | 920.83 | – | 1136 | 0.343
[2] | – | 1.3567 | – | –

CCCCCCCl [1-chlorohexane] + C1CCOC1
Conditions | mass density, [3] [kg/m3] | refractive index, [4] | speed of sound, [3] [m/s] | viscosity, [3] [mPa·s]
x2 = 0.1039 | 869.11 | 1.4161 | 1195 | 0.6407
x2 = 0.305 | 870.03 | 1.4142 | 1216 | 0.6046
x2 = 0.5025 | 871.36 | 1.4122 | 1233 | 0.5698
x2 = 0.7336 | 873.79 | 1.4088 | 1247 | 0.5114
x2 = 0.9013 | 875.66 | 1.4053 | 1252 | 0.4711

CCCCCOC(C)=O [pentyl ethanoate]
303.15 K
Conditions | mass density [kg/m3] | refractive index | speed of sound [m/s] | viscosity [mPa·s]
[1] | 867.2 | – | 1197 | 0.7573
[2] | – | 1.3961 | – | –

CCCCCCBr [1-bromohexane]
Conditions | mass density, [1] [kg/m3] | refractive index, [2] | speed of sound, [1] [m/s] | viscosity, [1] [mPa·s]
298.15 K | 1169.62 | 1.4464 | – | –
303.15 K | 1162.67 | 1.4441 | 1075 | 0.903

CCCCOC(C)=O [butyl ethanoate]
303.15 K
Conditions | mass density [kg/m3] | refractive index | speed of sound [m/s] | viscosity [mPa·s]
[1] | 870.8 | – | 1172 | 0.6453
[2] | – | 1.3896 | – | –

ClC(Cl)C(Cl)Cl [1,1,2,2-tetrachloroethane] + C1CCOC1
Conditions | mass density, [3] [kg/m3] | refractive index, [4] | speed of sound, [3] [m/s] | viscosity, [3] [mPa·s]
x2 = 0.1023 | 1523.21 | 1.483 | 1138 | 1.389
x2 = 0.2128 | 1460.02 | 1.476 | 1143 | 1.307
x2 = 0.3093 | 1401.59 | 1.4701 | 1149 | 1.227
x2 = 0.4056 | 1340.18 | 1.4639 | 1157 | 1.136
x2 = 0.5093 | 1270.31 | 1.4556 | 1168 | 1.029
x2 = 0.6032 | 1203.28 | 1.4472 | 1180 | 0.9116
x2 = 0.7046 | 1126.91 | 1.4368 | 1195 | 0.786
x2 = 0.8008 | 1050.12 | 1.4268 | 1212 | 0.6647
x2 = 0.8973 | 968.58 | 1.416 | 1231 | 0.5519

ClC(Cl)Cl [trichloromethane]
303.15 K
Conditions | mass density [kg/m3] | refractive index | speed of sound [m/s] | viscosity [mPa·s]
[1] | 1470.59 | – | 967 | 0.51
[2] | – | 1.441 | – | –

CCCCCOC(C)=O [pentyl ethanoate] + C1CCOC1
Conditions | mass density, [3] [kg/m3] | refractive index, [4] | speed of sound, [3] [m/s] | viscosity, [3] [mPa·s]
x2 = 0.1067 | 867.69 | 1.3967 | 1198 | 0.7426
x2 = 0.298 | 868.75 | 1.3978 | 1203 | 0.7005
x2 = 0.4997 | 870.25 | 1.3992 | 1212 | 0.6373
x2 = 0.6997 | 872.25 | 1.4005 | 1224 | 0.5686
x2 = 0.9027 | 875 | 1.4021 | 1242 | 0.4829

COC(C)=O [methyl ethanoate] + C1CCOC1
Conditions | mass density, [3] [kg/m3] | refractive index, [4] | speed of sound, [3] [m/s] | viscosity, [3] [mPa·s]
x2 = 0.1028 | 915.9 | 1.3649 | 1151 | 0.3512
x2 = 0.3022 | 906.64 | 1.3748 | 1178 | 0.3672
x2 = 0.5035 | 897.56 | 1.3847 | 1204 | 0.3841
x2 = 0.693 | 889.35 | 1.3927 | 1226 | 0.4035
x2 = 0.8918 | 881.07 | 1.4008 | 1246 | 0.4251

C1CCOC1 [tetrahydrofuran]
303.15 K
Conditions | mass density [kg/m3] | refractive index | speed of sound [m/s] | viscosity [mPa·s]
[1] | 876.7 | – | 1255 | 0.4383
[2] | – | 1.4028 | – | –

CCOC(C)=O [ethyl acetate]
303.15 K
Conditions | mass density [kg/m3] | refractive index | speed of sound [m/s] | viscosity [mPa·s]
[1] | 888.55 | – | 1117 | 0.4043
[2] | – | 1.3664 | – | –

CCCCCCBr [1-bromohexane] + C1CCOC1
Conditions | mass density, [3] [kg/m3] | refractive index, [4] | speed of sound, [3] [m/s] | viscosity, [3] [mPa·s]
x2 = 0.0976 | 1146.32 | 1.442 | 1087 | 0.8602
x2 = 0.3008 | 1107.3 | 1.4368 | 1119 | 0.7753
x2 = 0.4975 | 1061.2 | 1.4307 | 1154 | 0.6995
x2 = 0.696 | 1002.92 | 1.4223 | 1194 | 0.6258
x2 = 0.9 | 924.62 | 1.4105 | 1235 | 0.5054

CCCCOC(C)=O [butyl ethanoate] + C1CCOC1
Conditions | mass density, [3] [kg/m3] | refractive index, [4] | speed of sound, [3] [m/s] | viscosity, [3] [mPa·s]
x2 = 0.1033 | 871.17 | 1.3911 | 1177 | 0.6261
x2 = 0.1989 | 871.58 | 1.3924 | 1182 | 0.6085
x2 = 0.3041 | 872.04 | 1.3941 | 1188 | 0.5892
x2 = 0.3995 | 872.51 | 1.3954 | 1194 | 0.5762
x2 = 0.4967 | 873.01 | 1.397 | 1201 | 0.5573
x2 = 0.6013 | 873.59 | 1.3979 | 1210 | 0.5346
x2 = 0.6979 | 874.18 | 1.3991 | 1219 | 0.5107
x2 = 0.7978 | 874.96 | 1.4005 | 1229 | 0.4893
x2 = 0.8999 | 875.79 | 1.4018 | 1241 | 0.4644

ClC(Cl)(Cl)Cl [tetrachloromethane]
303.15 K
Conditions | mass density [kg/m3] | refractive index | speed of sound [m/s] | viscosity [mPa·s]
[1] | 1574.82 | – | 905 | 0.8441
[2] | – | 1.4555 | – | –

ClC(Cl)(Cl)Cl [tetrachloromethane] + C1CCOC1
Conditions | mass density, [3] [kg/m3] | refractive index, [4] | speed of sound, [3] [m/s] | viscosity, [3] [mPa·s]
x2 = 0.1068 | 1513.72 | 1.4519 | 932 | 0.8152
x2 = 0.2017 | 1457.18 | 1.4486 | 955 | 0.788
x2 = 0.3004 | 1395.97 | 1.4451 | 982 | 0.758
x2 = 0.396 | 1334.07 | 1.4409 | 1008 | 0.721
x2 = 0.503 | 1261.58 | 1.4357 | 1042 | 0.6782
x2 = 0.6 | 1192.83 | 1.4304 | 1074 | 0.6359
x2 = 0.6923 | 1124.71 | 1.4247 | 1109 | 0.5916
x2 = 0.7949 | 1045.62 | 1.4182 | 1152 | 0.5453
x2 = 0.8889 | 969.98 | 1.4116 | 1196 | 0.4962

ClC(Cl)Cl [trichloromethane] + C1CCOC1
Conditions | mass density, [3] [kg/m3] | refractive index, [4] | speed of sound, [3] [m/s] | viscosity, [3] [mPa·s]
x2 = 0.1023 | 1410.89 | 1.438 | 986 | 0.5307
x2 = 0.2085 | 1349.01 | 1.4346 | 1006 | 0.5467
x2 = 0.3045 | 1292.84 | 1.4315 | 1024 | 0.5566
x2 = 0.4278 | 1220.11 | 1.4273 | 1051 | 0.559
x2 = 0.5003 | 1176.98 | 1.4251 | 1070 | 0.558
x2 = 0.6047 | 1114.67 | 1.421 | 1102 | 0.5445
x2 = 0.6976 | 1058.96 | 1.4168 | 1133 | 0.5245
x2 = 0.8077 | 992.59 | 1.4121 | 1174 | 0.4955
x2 = 0.8921 | 941.69 | 1.4079 | 1208 | 0.4676

CCCCCCCl [1-chlorohexane]
Conditions | mass density, [1] [kg/m3] | refractive index, [2] | speed of sound, [1] [m/s] | viscosity, [1] [mPa·s]
298.15 K | 873.47 | 1.4197 | – | –
303.15 K | 868.78 | 1.4168 | 1184 | 0.6544

C1CCOC1 [tetrahydrofuran] + CCOC(C)=O
Conditions | mass density, [3] [kg/m3] | refractive index, [4] | speed of sound, [3] [m/s] | viscosity, [3] [mPa·s]
x1 = 0.0995 | 887.39 | 1.3707 | 1129 | 0.4078
x1 = 0.2035 | 886.11 | 1.375 | 1141 | 0.4082
x1 = 0.3016 | 884.98 | 1.3785 | 1153 | 0.4085
x1 = 0.3923 | 883.95 | 1.3821 | 1165 | 0.4091
x1 = 0.4868 | 882.82 | 1.3858 | 1177 | 0.4111
x1 = 0.5955 | 881.45 | 1.3892 | 1192 | 0.4147
x1 = 0.6973 | 880.21 | 1.3921 | 1206 | 0.4184
x1 = 0.812 | 878.89 | 1.3964 | 1224 | 0.4236
x1 = 0.9 | 877.84 | 1.3995 | 1238 | 0.4287

ClC(Cl)C(Cl)Cl [1,1,2,2-tetrachloroethane]
303.15 K
Conditions | mass density [kg/m3] | refractive index | speed of sound [m/s] | viscosity [mPa·s]
[1] | 1578.6 | – | 1135 | 1.457
[2] | – | 1.4881 | – | –
